Experimental data as given in patent US5798093A (priority 1997, dated 1998).

Assays:
itch = settings: cited from earlier work
[1] = test system: Compound 48/80-induced scratching; test: Anti-pruritic activity, mouse scratch model (Compound 48/80-induced scratching); assay type: in vivo, mouse (male Swiss albino); settings: s.c.; for Mean % Inhibition of Scratching: Compound 48/80 challenge, 30 min; for antagonism of Compound 48/80-induced scratching (in words): dose-related
Method: Testing was performed in a mouse scratch model under blind conditions.
Groups of 8-10 male Swiss albino mice (Hilltop Lab Animals, Inc., Scottsdale, Pa.), weighing […], were used in the testing. They were housed under controlled temperature of 23-25° C. Food and water were freely available. Before the experiments, the mice were weighed, put into individual boxes and allowed to acclimate for 30 min.
Vehicle used to dissolve the test compounds: 20% w/w cremophor EL.
[…] of the vehicle (3-5 doses, n-8-10) was injected s.c. into the back of the neck of mice 20 min. before challenging them with 100 μl of Compound 48/80 (2 mg/ml; 50 μg) injected s.c. into the back of the neck.
To each mouse of a group of 8-10 mice previously subjected to the standard challenge various doses of the compounds, to be tested for anti-pruritic activity, were administered s.c. into the back of the neck.
For each group of 8-10 mice, the mean values for scratching were normalized to relative % antagonism of scratching and then plotted vs. dose of test compounds. Interval estimates of mean A50 were determined by nonlinear regression analysis (Kalcida Graph) and mean % inhibition of scratching was calculated.

[2] = reported; antidiarrheal use; cited from earlier work
[3] = test system: warm water induced tail withdrawal reflex / castor oil diarrhea; settings: po
Text: Peripheral selectivity is defined by the ratio of the ED50 in the tail-withdrawal assay over the ED50 in the anti-diarrheal assay.
Measure of Centrally-Mediated Opiod Analgesia by the Tail-Withdrawal Assay (Janssen, P. A. J.; Niemegeers, C. J. E.; Dony, J. G. H., The Inhibitory effect of Fentanyl and other morphine-like analgesics on the warm water induced tail withdrawal reflex in rats. Arzneimittel-Forschung 1963, 13, 502-507.)
Young female Wistar rats (170-210 g body weight) are used only once. […] Around 8:30 AM the "normal" reaction time of each rat is determined by immersing the lower 5 cm portion of the tail in a cup freshly filled with water from a large constant temperature (55° C.) bath until the typical tail withdrawal response is observed. […] The reaction time is measured in 0.5 second units with a stopwatch. […] Periodically thereafter (i.e., 1/4, 1/2, 1, 2, 3, 4, 5 and 6 hours after dosage) the reaction time is again measured by trained technicians unaware of the nature of the compounds. Results of these studies are expressed as ED50 concentration values (mg/kg), calculated as the dose producing a tail withdrawal latency equal to half the difference between the maximum latency (≤15 seconds) and the baseline latency (6 to 8 seconds). […]

## cyclosporin A
itch; atopic dermatitis
  inhibition of itch in atopic dermatitis (in words): itch is not inhibited by antihistamines, but by cyclosporin A

## O=C(N1CCCCC1)C(CCN1CCC(O)(c2ccccc2)CC1)(c1ccccc1)c1ccccc1 [Compound 1, 1-[4-(4-Hydroxy-4-phenyl-1-piperidino)-2,2-diphenylbutyryl]piperidine]
[1]; 2.5 mg/kg
  Mean % Inhibition of Scratching: 32%
[1]; 5.0 mg/kg
  Mean % Inhibition of Scratching: 65%
[1]; 10.0 mg/kg
  Mean % Inhibition of Scratching: 83%
[1]
  antagonism of Compound 48/80-induced scratching (in words): antagonized Compound 48/80-induced scratching in a dose-related manner

## CN(C)C(=O)C(CCN1CCC(O)(c2ccc(Cl)cc2)CC1)(c1ccccc1)c1ccccc1.Cl [Example 2, 4-(p-Chlorophenyl)-4-hydroxy-N,N-dimethyl-α,α-diphenylpiperidine-1-butyramide hydrochloride]
[2]
  CNS effects (in words): completely free of the undesirable CNS effects

## CN1CC[C@]23c4c5ccc(O)c4O[C@H]2[C@@H](O)C=C[C@H]3[C@H]1C5 [morphine]
itch; i.v.
  generalized itching, incidence: about 1 % of patients

## CN(C)C(=O)C(CCN1CCC(O)(c2ccc(Cl)cc2)CC1)(c1ccccc1)c1ccccc1 [Compound 6, 4-(p-Chlorophenyl)-4-hydroxy-N,N-dimethyl-α,α-diphenyl-1-piperidinebutyramide]
[1]
  antagonism of Compound 48/80-induced scratching (in words): antagonized Compound 48/80-induced scratching in a dose-related manner
[2]
  CNS effects (in words): devoid of CNS effects

## O=C(N1CCCC1)C(CCN1CCC(O)(c2ccc(Cl)c(Cl)c2)CC1)(c1ccccc1)c1ccccc1 [Compound 4]
[3]
  Peripheral Selectivity (ED50tw /ED50 Castor Oil): > 640

## NCCc1c[nH]cn1 [histamine]
itch; humans / application to skin
  induction of itch (in words): produces itch but not pain

## CN(C)C(=O)C(CCN1CCC(O)(c2ccc(Br)cc2)CC1)(c1ccccc1)c1ccccc1 [Compound 3, 4-(p-Bromophenyl)-4-hydroxy-N,N-dimethyl-α,α-diphenyl-1-piperidinebutyramide]
[1]
  antagonism of Compound 48/80-induced scratching (in words): antagonized Compound 48/80-induced scratching in a dose-related manner
